Reference: the supplement of paper PMC10307832

Assays:
Assay in all cases: relative viability (nuclei count vs DMSO), 5 days (fraction); higher = more cells survive
[1] = tested on: A549
Outline: (§1)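 Lung cancer cell lines in 1536-well plates were dosed by pin tool the day after seeding, either with one drug alone or with a fixed anchor-drug dose plus five library-drug doses (not always all listed) in √10 steps. After 5 days, cells were fixed and their nuclei stained in one step (final 0.05% Triton X-100, 1% formaldehyde, 1 ug/ml Hoechst), then counted on 4× images. Relative viability is the nuclei count in treated wells divided by that in vehicle wells. Values are medians of duplicate plates.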

[2] = tested on: ABC-1
Outline: as §1

[3] = tested on: Calu-6
Outline: as §1

[4] = tested on: EBC-1
Outline: as §1

[5] = tested on: EKVX
Outline: as §1

[6] = tested on: HCC-44
Outline: as §1

[7] = tested on: IA-LM
Outline: as §1

[8] = tested on: NCI-H1299
Outline: as §1

[9] = tested on: NCI-H1703
Outline: as §1

[10] = tested on: NCI-H1993
Outline: as §1

[11] = tested on: NCI-H2085
Outline: as §1

[12] = tested on: NCI-H2126
Outline: as §1

[13] = tested on: RERF-LC-KJ
Outline: as §1

Nc1ccn([C@@H]2O[C@H](CO)[C@@H](O)[C@@H]2O)c(=O)n1 [Cytarabine] + CS(=O)(=O)CCNCc1ccc(-c2ccc3ncnc(Nc4ccc(OCc5cccc(F)c5)c(Cl)c4)c3c2)o1 [Lapatinib] (partner 2 µM)
relative viability ([1]; first compound 0.005 µM): 0.835
relative viability ([1]; first compound 0.01581 µM): 0.648
relative viability ([1]; first compound 0.05 µM): 0.569
relative viability ([1]; first compound 0.1581 µM): 0.148
relative viability ([1]; first compound 0.5 µM): 0.0593
relative viability ([2]; first compound 0.005 µM): 1.29
relative viability ([2]; first compound 0.01581 µM): 1.24
relative viability ([2]; first compound 0.1581 µM): 1.16
relative viability ([2]; first compound 0.5 µM): 1.03
relative viability ([3]; first compound 0.005 µM): 0.903
relative viability ([3]; first compound 0.01581 µM): 0.856
relative viability ([3]; first compound 0.05 µM): 0.921
relative viability ([3]; first compound 0.1581 µM): 0.512
relative viability ([3]; first compound 0.5 µM): 0.341
relative viability ([4]; first compound 0.01581 µM): 0.22
relative viability ([4]; first compound 0.05 µM): 0.185
relative viability ([4]; first compound 0.1581 µM): 0.152
relative viability ([4]; first compound 0.5 µM): 0.208
relative viability ([5]; first compound 0.005 µM): 0.225
relative viability ([5]; first compound 0.01581 µM): 0.18
relative viability ([5]; first compound 0.05 µM): 0.153
relative viability ([5]; first compound 0.1581 µM): 0.138
relative viability ([5]; first compound 0.5 µM): 0.112
relative viability ([6]; first compound 0.005 µM): 0.93
relative viability ([6]; first compound 0.01581 µM): 0.935
relative viability ([6]; first compound 0.05 µM): 0.984
relative viability ([6]; first compound 0.1581 µM): 0.532
relative viability ([6]; first compound 0.5 µM): 0.431
relative viability ([7]; first compound 0.005 µM): 0.85
relative viability ([7]; first compound 0.01581 µM): 0.729
relative viability ([7]; first compound 0.05 µM): 0.588
relative viability ([7]; first compound 0.1581 µM): 0.297
relative viability ([7]; first compound 0.5 µM): 0.175
relative viability ([8]; first compound 0.005 µM): 0.976
relative viability ([8]; first compound 0.01581 µM): 0.979
relative viability ([8]; first compound 0.05 µM): 1.07
relative viability ([8]; first compound 0.1581 µM): 0.987
relative viability ([8]; first compound 0.5 µM): 0.95
relative viability ([9]; first compound 0.005 µM): 0.776
relative viability ([9]; first compound 0.01581 µM): 0.388
relative viability ([9]; first compound 0.05 µM): 0.286
relative viability ([9]; first compound 0.1581 µM): 0.16
relative viability ([9]; first compound 0.5 µM): 0.194
relative viability ([10]; first compound 0.005 µM): 0.71
relative viability ([10]; first compound 0.01581 µM): 0.929
relative viability ([10]; first compound 0.05 µM): 0.682
relative viability ([10]; first compound 0.1581 µM): 0.618
relative viability ([10]; first compound 0.5 µM): 0.546
relative viability ([11]; first compound 0.005 µM): 0.735
relative viability ([11]; first compound 0.01581 µM): 0.725
relative viability ([11]; first compound 0.05 µM): 0.666
relative viability ([11]; first compound 0.1581 µM): 0.622
relative viability ([11]; first compound 0.5 µM): 0.374
relative viability ([12]; first compound 0.005 µM): 0.73
relative viability ([12]; first compound 0.01581 µM): 0.701
relative viability ([12]; first compound 0.05 µM): 0.61
relative viability ([12]; first compound 0.1581 µM): 0.516
relative viability ([12]; first compound 0.5 µM): 0.449
relative viability ([13]; first compound 0.005 µM): 0.885
relative viability ([13]; first compound 0.01581 µM): 0.751
relative viability ([13]; first compound 0.05 µM): 0.892
relative viability ([13]; first compound 0.1581 µM): 0.569
relative viability ([13]; first compound 0.5 µM): 0.47

Nc1ccn([C@@H]2O[C@H](CO)[C@@H](O)[C@@H]2O)c(=O)n1 [Cytarabine] + CS(=O)(=O)N1CCN(Cc2cc3nc(-c4cccc5[nH]ncc45)nc(N4CCOCC4)c3s2)CC1 [Pictilisib] (partner 1 µM)
relative viability ([1]; first compound 0.005 µM): 0.506
relative viability ([1]; first compound 0.05 µM): 0.539
relative viability ([1]; first compound 0.1581 µM): 0.0667
relative viability ([1]; first compound 0.5 µM): 0.039
relative viability ([2]; first compound 0.005 µM): 0.939
relative viability ([2]; first compound 0.01581 µM): 0.679
relative viability ([2]; first compound 0.05 µM): 0.698
relative viability ([2]; first compound 0.1581 µM): 0.635
relative viability ([2]; first compound 0.5 µM): 0.325
relative viability ([3]; first compound 0.005 µM): 0.741
relative viability ([3]; first compound 0.01581 µM): 0.618
relative viability ([3]; first compound 0.05 µM): 0.775
relative viability ([3]; first compound 0.1581 µM): 0.371
relative viability ([3]; first compound 0.5 µM): 0.203
relative viability ([4]; first compound 0.005 µM): 0.37
relative viability ([4]; first compound 0.01581 µM): 0.29
relative viability ([4]; first compound 0.05 µM): 0.239
relative viability ([4]; first compound 0.1581 µM): 0.215
relative viability ([4]; first compound 0.5 µM): 0.193
relative viability ([5]; first compound 0.005 µM): 0.486
relative viability ([5]; first compound 0.01581 µM): 0.362
relative viability ([5]; first compound 0.05 µM): 0.406
relative viability ([5]; first compound 0.1581 µM): 0.2
relative viability ([5]; first compound 0.5 µM): 0.163
relative viability ([6]; first compound 0.005 µM): 0.492
relative viability ([6]; first compound 0.01581 µM): 0.599
relative viability ([6]; first compound 0.05 µM): 0.5
relative viability ([6]; first compound 0.1581 µM): 0.349
relative viability ([6]; first compound 0.5 µM): 0.385
relative viability ([7]; first compound 0.005 µM): 0.296
relative viability ([7]; first compound 0.01581 µM): 0.336
relative viability ([7]; first compound 0.05 µM): 0.338
relative viability ([7]; first compound 0.1581 µM): 0.154
relative viability ([7]; first compound 0.5 µM): 0.0939
relative viability ([8]; first compound 0.005 µM): 0.819
relative viability ([8]; first compound 0.01581 µM): 0.839
relative viability ([8]; first compound 0.05 µM): 0.959
relative viability ([8]; first compound 0.1581 µM): 0.656
relative viability ([8]; first compound 0.5 µM): 0.645
relative viability ([9]; first compound 0.005 µM): 0.263
relative viability ([9]; first compound 0.01581 µM): 0.182
relative viability ([9]; first compound 0.05 µM): 0.194
relative viability ([9]; first compound 0.1581 µM): 0.149
relative viability ([9]; first compound 0.5 µM): 0.158
relative viability ([10]; first compound 0.005 µM): 0.84
relative viability ([10]; first compound 0.01581 µM): 0.815
relative viability ([10]; first compound 0.05 µM): 0.765
relative viability ([10]; first compound 0.1581 µM): 0.712
relative viability ([10]; first compound 0.5 µM): 0.525
relative viability ([11]; first compound 0.005 µM): 0.422
relative viability ([11]; first compound 0.01581 µM): 0.433
relative viability ([11]; first compound 0.05 µM): 0.401
relative viability ([11]; first compound 0.1581 µM): 0.367
relative viability ([11]; first compound 0.5 µM): 0.281
relative viability ([12]; first compound 0.005 µM): 0.441
relative viability ([12]; first compound 0.01581 µM): 0.432
relative viability ([12]; first compound 0.05 µM): 0.382
relative viability ([12]; first compound 0.1581 µM): 0.312
relative viability ([12]; first compound 0.5 µM): 0.29
relative viability ([13]; first compound 0.005 µM): 0.493
relative viability ([13]; first compound 0.01581 µM): 0.459
relative viability ([13]; first compound 0.05 µM): 0.487
relative viability ([13]; first compound 0.1581 µM): 0.428
relative viability ([13]; first compound 0.5 µM): 0.287

Nc1ccn([C@@H]2O[C@H](CO)[C@@H](O)[C@@H]2O)c(=O)n1 [Cytarabine] + C[C@@H](Oc1cc(-c2cnn(C3CCNCC3)c2)cnc1N)c1c(Cl)ccc(F)c1Cl [Crizotinib] (partner 1 µM)
relative viability ([1]; first compound 0.005 µM): 0.541
relative viability ([1]; first compound 0.01581 µM): 0.53
relative viability ([1]; first compound 0.05 µM): 0.449
relative viability ([1]; first compound 0.1581 µM): 0.0819
relative viability ([1]; first compound 0.5 µM): 0.0747
relative viability ([2]; first compound 0.005 µM): 0.871
relative viability ([2]; first compound 0.01581 µM): 0.821
relative viability ([2]; first compound 0.05 µM): 0.925
relative viability ([2]; first compound 0.1581 µM): 0.717
relative viability ([2]; first compound 0.5 µM): 0.462
relative viability ([3]; first compound 0.005 µM): 0.722
relative viability ([3]; first compound 0.01581 µM): 0.706
relative viability ([3]; first compound 0.05 µM): 0.623
relative viability ([3]; first compound 0.1581 µM): 0.433
relative viability ([3]; first compound 0.5 µM): 0.259
relative viability ([4]; first compound 0.01581 µM): 0.171
relative viability ([4]; first compound 0.05 µM): 0.178
relative viability ([4]; first compound 0.1581 µM): 0.149
relative viability ([4]; first compound 0.5 µM): 0.159
relative viability ([5]; first compound 0.005 µM): 0.802
relative viability ([5]; first compound 0.01581 µM): 1.07
relative viability ([5]; first compound 0.05 µM): 0.827
relative viability ([5]; first compound 0.1581 µM): 0.368
relative viability ([5]; first compound 0.5 µM): 0.287
relative viability ([6]; first compound 0.005 µM): 0.776
relative viability ([6]; first compound 0.01581 µM): 0.831
relative viability ([6]; first compound 0.05 µM): 0.626
relative viability ([6]; first compound 0.1581 µM): 0.383
relative viability ([6]; first compound 0.5 µM): 0.378
relative viability ([7]; first compound 0.005 µM): 0.864
relative viability ([7]; first compound 0.01581 µM): 0.62
relative viability ([7]; first compound 0.05 µM): 0.729
relative viability ([7]; first compound 0.1581 µM): 0.414
relative viability ([7]; first compound 0.5 µM): 0.121
relative viability ([8]; first compound 0.005 µM): 0.956
relative viability ([8]; first compound 0.01581 µM): 0.99
relative viability ([8]; first compound 0.05 µM): 1.03
relative viability ([8]; first compound 0.1581 µM): 0.961
relative viability ([8]; first compound 0.5 µM): 0.943
relative viability ([9]; first compound 0.005 µM): 0.484
relative viability ([9]; first compound 0.01581 µM): 0.375
relative viability ([9]; first compound 0.05 µM): 0.299
relative viability ([9]; first compound 0.1581 µM): 0.148
relative viability ([9]; first compound 0.5 µM): 0.205
relative viability ([10]; first compound 0.005 µM): 0.92
relative viability ([10]; first compound 0.01581 µM): 0.785
relative viability ([10]; first compound 0.05 µM): 0.845
relative viability ([10]; first compound 0.1581 µM): 0.614
relative viability ([10]; first compound 0.5 µM): 0.566
relative viability ([11]; first compound 0.005 µM): 0.718
relative viability ([11]; first compound 0.01581 µM): 0.883
relative viability ([11]; first compound 0.05 µM): 0.799
relative viability ([11]; first compound 0.1581 µM): 0.552
relative viability ([11]; first compound 0.5 µM): 0.621
relative viability ([12]; first compound 0.005 µM): 0.916
relative viability ([12]; first compound 0.01581 µM): 1.01
relative viability ([12]; first compound 0.05 µM): 0.96
relative viability ([12]; first compound 0.1581 µM): 0.78
relative viability ([12]; first compound 0.5 µM): 0.656
relative viability ([13]; first compound 0.005 µM): 0.853
relative viability ([13]; first compound 0.01581 µM): 0.845
relative viability ([13]; first compound 0.05 µM): 0.759
relative viability ([13]; first compound 0.1581 µM): 0.502
relative viability ([13]; first compound 0.5 µM): 0.4
